Results: patent US20120020926A1, “COMPOSITION COMPRISING CAFTARIC ACID AND/OR DERIVATIVES THEREOF” (NESTEC S.A., priority 2009, published 2012)
Like-named read-outs stand apart in the source and are kept apart here.

Tests used:
chlorogenate esterase = settings: Aspergillus japonicus, 1.85 mg/mL, pH 7
Description: A solution of chlorogenate esterase (0.8 mg, 24 U/g, from Kikkoman Japan) in 100 μl phosphate buffer (50 mM, pH 7.0) was added to a solution of caftaric acid (0.37 mg) in 100 μl phosphate buffer (50 mM, pH 7.0). The mixture was then incubated at 37° C. for 4 h. […] The supernatant was then analysed by HPLC. A reaction control was run in parallel under the same reaction conditions but without enzyme.
(§1) HPLC-DAD analysis of caftaric acid and hydrolysis products was performed on a Agilent 1100 system equipped with a Atlantis C18 reverse-phase column (4.6×100 mm, particle size 3 μm) and a diode array detector. The column was equilibrated with water containing 0.1% formic acid. After injection, a linear gradient to a final solvent composition of 55% water and 45% acetonitrile (containing 0.1% formic acid) was run within 12 min at a flow rate of 1 ml/min. Caftaric acid and caffeic acid were monitored by UV at 320 nm and were quantified using standard calibration curves.

[1] = test system: spray-dried preparation of L. johnsonii; settings: Lactobacillus johnsonii, 6 mM, pH 7
Description: 10 mg of a spray-dried preparation of L. johnsonii (3.3 E09 cfu/g) were dissolved in 100 μl of phosphate buffer (50 mM, pH 7.0). To this solution, 100 μl of a caftaric acid solution (12 mM, phosphate buffer 50 mM, pH 7.0) were added. The mixture was then incubated at 37° C. and samples were withdrawn at different reaction times. After centrifugation (3000 g, 5 min) and filtration (0.45 μm pore size syringe filters, Millipore SLHA 025 BS) the samples were analysed by HPLC.
as §1

liver metastasis = settings: subcutaneous and oral administrations; cited from earlier work
[2] = test system: L. johnsonii (CNCM I-1225) fresh cells; assay: Hydrolysis of caftaric acid with L. johnsonii (La1) fresh cells; assay type: in vitro ADME, Lactobacillus johnsonii; settings: after 4 h reaction time, 37° C.
Description: Cells of L. johnsonii (CNCM I-1225) were grown (7.0 E08 cfu/ml) and centrifuged (5000 g, 10 min), the pellets were resuspended in phosphate buffer (50 mM, pH 7.0) at a concentration of 0.61 g/ml. To 100 μl of this cells solution, 100 μl of a solution of caftaric acid (12 mM) was added and the mixture was incubated at 37° C. Samples were withdrawn at different reaction times, centrifuged (3000 g, 5 min) and filtered through 0.45 μm pore size syringe filters (Millipore SLHA 025 BS) and analysed by HPLC.
A reaction control was run in parallel under the same reaction conditions but without bacteria.
as §1

[3] = test system: Nrf2-ARE pathway (AREc32 cells); assay: Antioxidant Responsive Element (ARE) luciferase assay; assay type: cell-based, human; settings: for F/C (firefly luciferase activity): AREc reporter cell line, 24 h
[4] = test system: L. johnsonii (CNCM I-1225) crude cell extract
Description: (§2) Cells of L. johnsonii (CNCM I-1225) were grown (7.0 E08 cfu/ml) and centrifuged (5000 g, 10 min), the pellets were resuspended in phosphate buffer (50 mM, pH 7.0) at a concentration of 0.61 g/ml. The cells were then lysed using the glass-beads method. 600 μl of cells preparation were put into a Mini-Beadbeater for 1 min of intense shaking, cooled in ice, and put another 1 min in the Mini-Beadbeater. The crude cell extract (100 μl) was then added to 100 μl of a solution of caftaric acid (12 mM, phosphate buffer 50 mM, pH 7.0) and the mixture was incubated at 37° C. Samples were withdrawn at different reaction times, centrifuged (3000 g, 5 min), filtered through 0.45 μm pore size syringe filters (Millipore SLHA 025 BS) and analysed by HPLC.
as §1

[5] = test system: L. johnsonii (CNCM I-1225) crude cell extract; assay: Hydrolysis of caftaric acid with La1 extract (lysed cells); settings: after 2 h, 37° C.
Description: as §2, §1

Row | SMILES | Hydrolysis of caftaric acid into caffeic acid by chlorogenate esterase (amount by HPLC) (chlorogenate esterase; 0 min) [%] | Hydrolysis of caftaric acid into caffeic acid by chlorogenate esterase (amount by HPLC) (chlorogenate esterase; 15 min) [%] | Hydrolysis of caftaric acid into caffeic acid by chlorogenate esterase (amount by HPLC) (chlorogenate esterase; 30 min) [%] | Hydrolysis of caftaric acid into caffeic acid by chlorogenate esterase (amount by HPLC) (chlorogenate esterase; 60 min) [%] | Hydrolysis of caftaric acid into caffeic acid by chlorogenate esterase (amount by HPLC) (chlorogenate esterase; 120 min) [%] | Hydrolysis of caftaric acid into caffeic acid by chlorogenate esterase (amount by HPLC) (chlorogenate esterase; 240 min) [%] | hydrolysis of caftaric acid into caffeic acid by a spray-dried preparation of La1 (amount by HPLC) ([1]; 0 min) | hydrolysis of caftaric acid into caffeic acid by a spray-dried preparation of La1 (amount by HPLC) ([1]; 15 min) | hydrolysis of caftaric acid into caffeic acid by a spray-dried preparation of La1 (amount by HPLC) ([1]; 30 min) | hydrolysis of caftaric acid into caffeic acid by a spray-dried preparation of La1 (amount by HPLC) ([1]; 60 min) | hydrolysis of caftaric acid into caffeic acid by a spray-dried preparation of La1 (amount by HPLC) ([1]; 120 min) | hydrolysis of caftaric acid into caffeic acid by a spray-dried preparation of La1 (amount by HPLC) ([1]; 240 min) | further results
1 | O=C(O)/C=C/c1ccc(O)c(O)c1 [Caffeic acid, Caffeic Acid] | 0 | 18 | 26 | 57 | 81 | 98 | 0 | 32 | 53 | 76 | 92 | 98 | liver metastasis (liver metastasis): significantly reduced liver metastasis
2 | O=C(/C=C/c1ccc(O)c(O)c1)O[C@@H](C(=O)O)[C@@H](O)C(=O)O [Caftaric acid] | 99 | 82 | 64 | 43 | 19 | 2 | 99 | 68 | 47 | 24 | 8 | 2 | transformation of caftaric acid into caffeic acid [2]: all caftaric acid was transformed into caffeic acid; Nrf2-luciferase reporter activity ([3]; AREc32 cells, saturation inactivation response at higher doses): positive dose-dependent response; F/C (firefly luciferase activity) ([3]; 125 μg/ml): 2796; F/C (firefly luciferase activity) ([3]; 250 μg/ml): 5821; F/C (firefly luciferase activity) ([3]; 500 μg/ml): 5182; F/C (firefly luciferase activity) ([3]; 750 μg/ml): 25792; F/C (firefly luciferase activity) ([3]; 1000 μg/ml): 4777; F/C (firefly luciferase activity) ([3]; 1200 μg/ml): 29043; reaction rate of hydrolysis as compared to whole cells [4]: increase of the reaction rate; transformation of caftaric acid into caffeic acid [5]: all caftaric acid acid was transformed into caffeic acid
